Several values for one entry are separate records, joined by “and”; a condition that tells them apart may be missing. Equal values may be shown once.
Tested on: human colon carcinoma HCT-116 xenografts
Test: Compound D with Iso-Oxazole-Fludelone or Isodehydelone in nude mice bearing HCT-116 xenografts
Conditions: mouse, in vivo

iso-oxazole-fludelone (17-isooxazole-fludelone) [Iso-Flu]
complete remission (CR): 6/6 and 1/6

Source: patent publication US8859615B2, “Compounds, compositions and methods for reducing toxicity and treating or preventing diseases” (priority 2008, dated 2014)
